{"source": "paper PMC9107402", "about": "(European Journal of Clinical Pharmacology, 2022)", "key": {"CYP3A": {"tested_on": "CYP3A", "experiment": "Calculated metabolic clearance of microdosed midazolam (limited sampling AUC 2-4 h)", "conditions": "for midazolam metabolic clearance, % of the baseline value: during fluconazole", "method": "(§1) Blood samples were centrifuged for 10 min at 2500 g and 4 °C, and separated plasma was distributed into 4 aliquots, each stored at − 20 °C until analysis.\nMidazolam concentrations in plasma were determined by UPLC-MS/MS."}, "CYP3A4": {"tested_on": "CYP3A4", "conditions": "cited from earlier work"}, "[1]": {"conditions": "alteration of gastric pH; cited from earlier work"}, "CYP2C19 [2]": {"tested_on": "CYP2C19", "experiment": "clinical", "conditions": "human, in vivo; for Cl/F / Tmax: po", "method": "This was an open-label clinical trial with fixed sequence design consisting of a total of seven inpatient study days and eight short visits for each participant.\nThe CYP2C19 perpetrator fluconazole (Fluconazol HEXAL® 200 mg, HEXAL) was given for 5 days in oral doses of 400 mg on day 1 and 200 mg on days 2 to 5. […] A diary was used to ensure correct intake of fluconazole and rifampicin at home.\nas §1\nThe statistical analysis was performed using Prism 8.4 (GraphPad Software Inc., La Jolla, CA, USA)."}, "CYP2C19 [3]": {"tested_on": "CYP2C19", "conditions": "cited from earlier work"}, "[4]": {"conditions": "cited from earlier work"}}, "note": "Read-outs that look alike come from different tables or passages of the source."}
{"compound": "Cc1ncc2n1-c1ccc(Cl)cc1C(c1ccccc1F)=NC2", "note": "[midazolam]", "values": [{"measurement": "midazolam metabolic clearance, % of the baseline value", "setting": "CYP3A; with 100 µg omeprazole", "value": 28, "unit": "%"}, {"measurement": "midazolam metabolic clearance, % of the baseline value", "setting": "CYP3A; with 20 mg omeprazole", "value": 26, "unit": "%"}, {"measurement": "increase of midazolam metabolic clearance", "setting": "CYP3A; during rifampicin", "value": "10–12 fold"}, {"measurement": "increase of midazolam metabolic clearance", "setting": "CYP3A; rifampicin day 5", "value": 10.1, "unit": "fold"}, {"measurement": "increase of midazolam metabolic clearance", "setting": "CYP3A; rifampicin day 7", "value": 11.9, "unit": "fold"}, {"measurement": "midazolam AUC decrease to % of the baseline value", "setting": "CYP3A4; 600 mg rifampicin daily over 5 days", "value": 4.1, "unit": "%"}, {"measurement": "increase of midazolam AUC", "setting": "CYP3A4; oral 7.5 mg midazolam during fluconazole treatment", "value": 3.6, "unit": "fold"}]}
{"compound": "Cc1c(O)cccc1C(=O)N[C@@H](CSc1ccccc1)[C@H](O)CN1C[C@H]2CCCC[C@H]2C[C@H]1C(=O)NC(C)(C)C", "note": "[nelfinavir]", "values": [{"measurement": "reduction of nelfinavir AUC by omeprazole", "setting": "[1]", "value": "approximately one third"}, {"measurement": "reduction of nelfinavir Cmax by omeprazole", "setting": "[1]", "value": "approximately one third"}]}
{"compound": "COc1ccc2[nH]c([S+]([O-])Cc3ncc(C)c(OC)c3C)nc2c1", "note": "(stereo not shown) [omeprazole]", "values": [{"measurement": "dose-normalized Cmax", "setting": "CYP2C19 [2]", "value": 896, "unit": "ng/mL"}, {"measurement": "clearance", "setting": "CYP2C19 [2]; 100 ug, omeprazole clearance", "value": 476, "unit": "mL/min"}, {"measurement": "higher AUC in the poor metabolizer in comparison with the EM group", "setting": "CYP2C19 [2]; 20 mg", "value": 6.5, "unit": "fold"}, {"measurement": "higher Cmax in the poor metabolizer in comparison with the EM group", "setting": "CYP2C19 [2]; 20 mg", "value": "threefold"}, {"measurement": "Cl/F", "setting": "CYP2C19 [2]; 100 ug", "value": 379, "unit": "mL/min"}, {"measurement": "Tmax", "setting": "CYP2C19 [2]; 100 ug", "value": 21.8, "unit": "min"}, {"measurement": "Tmax", "setting": "CYP2C19 [2]; 100 ug, tmax (harmonic mean)", "value": 15, "unit": "min"}, {"measurement": "Cl/F", "setting": "CYP2C19 [2]; 20 mg", "value": 388, "unit": "mL/min"}, {"measurement": "Tmax", "setting": "CYP2C19 [2]; 20 mg, tmax (harmonic mean)", "value": 178, "unit": "min"}, {"measurement": "increase of omeprazole AUC", "setting": "CYP2C19 [3]; 100 mg fluconazole daily for 5 days, healthy volunteers", "value": "sixfold"}, {"measurement": "increase of omeprazole AUC", "setting": "CYP2C19 [3]; 8 days of 50 mg fluconazole daily", "value": "2.7–2.8 fold"}, {"measurement": "omeprazole AUC decreased to", "setting": "CYP2C19 [3]; rifampicin 150 mg, 8 days, omeprazole microdose", "value": 22, "unit": "%"}, {"measurement": "omeprazole AUC decreased to", "setting": "CYP2C19 [3]; rifampicin 150 mg, 9 days, 20 mg omeprazole", "value": 20, "unit": "%"}, {"measurement": "omeprazole AUC decreased to", "setting": "CYP2C19 [3]; rifampicin 6 days, 450 mg daily, 20 mg omeprazole", "value": 12.9, "unit": "%"}, {"measurement": "bioequivalence to an encapsulated formulation", "setting": "CYP2C19 [3]; uncoated omeprazole with 48 mmol sodium bicarbonate", "value": "bioequivalent"}]}
{"compound": "OC(Cn1cncn1)(Cn1cncn1)c1ccc(F)cc1F", "note": "[fluconazole]", "values": [{"measurement": "effect of changes in gastric pH on fluconazole Cmax, tmax, and AUC", "setting": "[4]", "value": "did not affect"}]}
